Results reported in paper PMC7333345, “nanoDSF: In vitro Label-Free Method to Monitor Picornavirus Uncoating and Test Compounds Affecting Particle Stability” (Frontiers in Microbiology, 2020).

Biological target: T1, RV-A2 (native virion capsid; VP1 hydrophobic pocket) (rhinovirus A2, UniProt P04936)
T1 construct: native purified virion (propagated virus, monolithic chromatography); 60 copies each of VP1-VP4 cut from the genome polyprotein; VP4 68 aa; with Capsid protein VP2; Capsid protein VP3; Capsid protein VP4
T1 sequence (P04936 2-850): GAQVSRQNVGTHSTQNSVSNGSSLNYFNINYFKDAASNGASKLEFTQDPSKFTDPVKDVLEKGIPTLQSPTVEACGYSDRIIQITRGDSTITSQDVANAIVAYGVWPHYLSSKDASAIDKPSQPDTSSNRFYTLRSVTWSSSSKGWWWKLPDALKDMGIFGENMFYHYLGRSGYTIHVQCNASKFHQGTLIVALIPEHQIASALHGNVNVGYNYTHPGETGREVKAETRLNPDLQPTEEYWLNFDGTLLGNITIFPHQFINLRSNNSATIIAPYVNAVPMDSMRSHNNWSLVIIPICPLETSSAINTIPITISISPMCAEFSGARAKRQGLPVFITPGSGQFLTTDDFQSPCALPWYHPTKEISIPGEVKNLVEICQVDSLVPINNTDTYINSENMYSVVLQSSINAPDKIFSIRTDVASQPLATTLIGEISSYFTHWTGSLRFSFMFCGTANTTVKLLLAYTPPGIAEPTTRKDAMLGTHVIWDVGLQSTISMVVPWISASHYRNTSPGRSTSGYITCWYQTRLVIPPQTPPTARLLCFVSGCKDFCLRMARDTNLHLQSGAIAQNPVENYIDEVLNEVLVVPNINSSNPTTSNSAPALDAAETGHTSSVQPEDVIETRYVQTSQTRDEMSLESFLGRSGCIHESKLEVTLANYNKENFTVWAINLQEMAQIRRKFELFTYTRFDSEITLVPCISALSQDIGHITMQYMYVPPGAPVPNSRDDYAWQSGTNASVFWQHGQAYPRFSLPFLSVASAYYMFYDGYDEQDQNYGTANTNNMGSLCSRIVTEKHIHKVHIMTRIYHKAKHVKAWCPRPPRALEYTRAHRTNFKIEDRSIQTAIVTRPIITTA
Test: nanoDSF (intrinsic tryptophan fluorescence, Em350/Em330 ratio)
Assay type: binding
Details: 1 mM pleconaril, 2% DMSO, PBS, 1 °C/min, RV-A2 0.5 mg/ml (1 mg/ml in Figure 3 legend), whole virion, against DMSO control

**Q.** With `Cc1cc(CCCOc2c(C)cc(-c3noc(C(F)(F)F)n3)cc2C)on1` [pleconaril] as the compound, how does the “shift of TA (50% N to A particle conversion)” value read?
**A.** 5 °C
